Measured values published in ChEMBL document CHEMBL5260833, “An overview of quinazolines: Pharmacological significance and recent developments” (Eur J Med Chem, 2018).

Tests used:
Rattus norvegicus [1] = test: Anticonvulsant activity in PTZ induced rat at 50 mg/kg, sc measured after 2 to 4 mins relative to control; assay type: functional; conditions: time 2-4 min
Rattus norvegicus [2] = test: Anticonvulsant activity in rat at 50 mg/kg, ip measured after 1 hrs by MES test relative to control; assay type: functional
[3] = Binding affinity to AT1 in rabbit aorta; assay type: tissue-based, Oryctolagus cuniculus
Thymidylate synthase = Thymidylate synthase (Homo sapiens, UniProt P04818); test: Inhibition of human TS
[4] = Inhibition of Lacticaseibacillus casei TS
Rattus norvegicus [5] = test: Anticonvulsant activity in albino rat at 30 mg/kg, ip measured after 1 hrs by MES test; assay type: functional
Tobacco mosaic virus = test: Antiviral activity against TMV at 500 microg/ml; assay type: functional; conditions: dose 500 µg/ml

Sequence of Thymidylate synthase (P04818 whole entry): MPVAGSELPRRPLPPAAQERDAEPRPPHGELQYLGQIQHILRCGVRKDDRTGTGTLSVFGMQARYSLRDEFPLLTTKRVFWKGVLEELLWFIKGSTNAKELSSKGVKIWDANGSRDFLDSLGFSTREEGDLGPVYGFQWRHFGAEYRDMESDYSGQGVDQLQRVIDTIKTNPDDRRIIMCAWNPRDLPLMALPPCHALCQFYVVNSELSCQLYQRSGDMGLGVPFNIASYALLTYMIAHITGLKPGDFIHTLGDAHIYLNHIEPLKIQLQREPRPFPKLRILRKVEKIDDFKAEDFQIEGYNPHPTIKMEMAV

| Structure (SMILES) | Activity (Rattus norvegicus [1]) | Activity (Rattus norvegicus [2]) | inhibition in vivo at 30 mg/kg (Rattus norvegicus [5]) | further results |
| --- | --- | --- | --- | --- |
| Cc1nc2ccccc2c(=O)n1NCC(=O)NNC(=S)NCC1C(=O)NC(=O)NC1=O | 40% | 40% |  |  |
| CS(C)(=O)=O [DIMETHYL SULFONE] |  |  |  | IC50 [3]: 2.6 nM |
| Cc1nc2ccccc2c(=O)n1NCC(=O)NNC(=S)NCC1C(=O)NC(=S)NC1=O | 40% | 40% |  |  |
| CCCCC(=O)Nc1ccc2nc(CCCC)n(Cc3ccc(-c4ccccc4-c4nn[nH]n4)cc3)c(=O)c2c1 |  |  |  | IC50 [3]: ≥ 1.3 nM |
| Cc1nc2ccc(Br)cc2c(=O)n1NCc1nnc(N)s1 | 40% | 40% |  |  |
| CCCCc1nc2ccc(I)cc2c(=O)n1Cc1ccc(-c2ccccc2-c2nn[nH]n2)cc1 |  |  |  | IC50 [3]: ≥ 1.3 nM |
| COC(=O)[C@H](NC(=O)c1ccc(Sc2c(C)ccc3nc(N)[nH]c(=O)c23)cc1)c1ccccc1 |  |  |  | IC50 (Thymidylate synthase): 3 nM; IC50 [4]: 200 nM |
| CCCC(CCC)C(=O)[O-].[Na+] [VALPROATE SODIUM] | 80% | 80% |  |  |
| COC(=O)[C@H](Cc1ccccc1)NC(=O)c1ccc(Sc2c(C)ccc3nc(N)[nH]c(=O)c23)cc1 |  |  |  | IC50 (Thymidylate synthase): 3 nM; IC50 [4]: 200 nM |
| Cc1nc2c(Br)cc(Br)cc2c(=O)n1NCc1nnc(NCC2C(=O)NC(=O)NC2=O)s1 | 60% | 60% |  |  |
| Cc1nc2ccccc2c(=O)n1NCc1nnc(/N=C/c2ccccc2)s1 |  |  | 50% |  |
| CCCCc1nc2ccc(C)cc2c(=O)n1Cc1ccc(-c2ccccc2-c2nn[nH]n2)cc1 |  |  |  | IC50 [3]: ≥ 1.3 nM |
| CCOC(=O)CNn1c(C)nc2c(Br)cc(Br)cc2c1=O | 10% | 10% |  |  |
| CCCCc1nc2ccc(N)cc2c(=O)n1Cc1ccc(-c2ccccc2-c2nn[nH]n2)cc1 |  |  |  | IC50 [3]: ≥ 1.3 nM |
| Cc1nc2ccc(Br)cc2c(=O)n1NCC(=O)NNC(=S)NCC1C(=O)NC(=S)NC1=O | 40% | 40% |  |  |
| Cc1nc2ccc(I)cc2c(=O)n1NCc1nnc(NCC2C(=O)NC(=S)NC2=O)s1 | 60% | 60% |  |  |
| COc1ccc(/C=N/c2nnc(CNn3c(C)nc4ccc(Br)cc4c3=O)s2)cc1 |  |  | 50% |  |
| Cc1nc2ccccc2c(=O)n1NCc1nnc(/N=C/c2ccc(N(C)C)cc2)s1 |  |  | 50% |  |
| CCCCc1nc2ccc(C)cc2c(=O)n1Cc1ccc(-c2ccccc2C(=O)O)cc1 |  |  |  | IC50 [3]: 10 nM |
| CCc1nc2ccc(C)cc2c(=O)n1Cc1ccc(-c2ccccc2-c2nn[nH]n2)cc1 |  |  |  | IC50 [3]: ≥ 1.3 nM |
| CCCc1nc2ccc(C)cc2c(=O)n1Cc1ccc(-c2ccccc2-c2nn[nH]n2)cc1 |  |  |  | IC50 [3]: ≥ 1.3 nM |

| Structure (SMILES) | Activity (Rattus norvegicus [1]) | Activity (Rattus norvegicus [2]) | inhibition in vivo at 30 mg/kg (Rattus norvegicus [5]) | further results |
| --- | --- | --- | --- | --- |
| Cc1nc2c(Br)cc(Br)cc2c(=O)n1NCc1nnc(N)s1 | 40% | 40% |  |  |
| Cc1nc2ccccc2c(=O)n1NCC(=O)NNC(N)=S | 20% | 20% | 30% |  |
| Cc1nc2ccccc2c(=O)n1NCc1nnc(N2C(=O)CSC2c2ccc(O)cc2)s1 (stereo unspecified) |  |  | 60% |  |
| Cc1nc2ccccc2c(=O)n1NCc1nnc(N2C(=O)CSC2c2ccc(N(C)C)cc2)s1 (stereo unspecified) |  |  | 60% |  |
| Nc1nnc(-c2cccc(Cl)c2Cl)c(N)n1 [LAMOTRIGINE] |  |  | 90% |  |
| CCOC(=O)CNn1c(C)nc2ccc(I)cc2c1=O | 10% | 10% |  |  |
| Cc1nc2c(Br)cc(Br)cc2c(=O)n1NCC(=O)NNC(N)=S | 20% | 20% |  |  |
| Cc1nc2ccccc2c(=O)n1NCc1nnc(N2C(=O)CSC2c2ccccc2)s1 (stereo unspecified) |  |  | 60% |  |
| CCCCc1nc2cc(C)ccc2c(=O)n1Cc1ccc(-c2ccccc2C(=O)O)cc1 |  |  |  | IC50 [3]: 370 nM |
| COc1ccc(C2SCC(=O)N2c2nnc(CNn3c(C)nc4ccc(Br)cc4c3=O)s2)cc1 (stereo unspecified) |  |  | 60% |  |
| Cc1nc2ccccc2c(=O)n1NCc1nnc(NCC2C(=O)NC(=O)NC2=O)s1 | 60% | 60% |  |  |
| CCCCc1nc2c(C)cccc2c(=O)n1Cc1ccc(-c2ccccc2C(=O)O)cc1 |  |  |  | IC50 [3]: 370 nM |
| CCCCc1nc2ccccc2c(=O)n1Cc1ccc(-c2ccccc2C(=O)O)cc1 |  |  |  | IC50 [3]: 92 nM |
| COc1cccc(C2SCC(=O)N2c2nnc(CNn3c(C)nc4ccccc4c3=O)s2)c1 (stereo unspecified) |  |  | 60% |  |
| CCOC(=O)CNn1c(C)nc2ccccc2c1=O | 10% | 10% | 20% |  |
| COc1ccc(/C=N/c2nnc(CNn3c(C)nc4ccccc4c3=O)s2)cc1 |  |  | 50% |  |
| CCOC(=O)CNn1c(C)nc2ccc(Br)cc2c1=O | 10% | 10% | 20% |  |
| CCCCc1nc2cc3ccccc3cc2c(=O)n1Cc1ccc(-c2ccccc2C(=O)O)cc1 |  |  |  | IC50 [3]: 10 nM |
| Cc1nc2ccc(I)cc2c(=O)n1NCc1nnc(NCC2C(=O)NC(=O)NC2=O)s1 | 60% | 60% |  |  |
| Cc1nc2ccc(I)cc2c(=O)n1NCc1nnc(N)s1 | 40% | 40% |  |  |
| Cc1nc2c(Br)cc(Br)cc2c(=O)n1NCc1nnc(NCC2C(=O)NC(=S)NC2=O)s1 | 60% | 60% |  |  |

| Structure (SMILES) | Activity (Rattus norvegicus [1]) | Activity (Rattus norvegicus [2]) | inhibition in vivo at 30 mg/kg (Rattus norvegicus [5]) | further results |
| --- | --- | --- | --- | --- |
| CCCCc1nc2cccc(F)c2c(=O)n1Cc1ccc(-c2ccccc2-c2nn[nH]n2)cc1 |  |  |  | IC50 [3]: ≥ 1.3 nM |
| Cc1nc2ccccc2c(=O)n1NCc1nnc(N)s1 | 40% | 40% |  |  |
| CCCCc1nc2cc(Cl)ccc2c(=O)n1Cc1ccc(-c2ccccc2-c2nn[nH]n2)cc1 |  |  |  | IC50 [3]: ≥ 1.3 nM |
| Cc1nc2ccc(Br)cc2c(=O)n1NCC(=O)NNC(=S)NCC1C(=O)NC(=O)NC1=O | 40% | 40% |  |  |
| Cc1nc2c(Br)cc(Br)cc2c(=O)n1NCC(=O)NNC(=S)NCC1C(=O)NC(=S)NC1=O | 40% | 40% |  |  |
| Cc1nc2ccccc2c(=O)n1NCc1nnc(/N=C/c2ccc(O)cc2)s1 |  |  | 50% |  |
| Cc1nc2ccc(Br)cc2c(=O)n1NCc1nnc(N2C(=O)CSC2c2ccccc2)s1 (stereo unspecified) |  |  | 60% |  |
| Cc1nc2ccc(I)cc2c(=O)n1NCC(=O)NNC(=S)NCC1C(=O)NC(=O)NC1=O | 40% | 40% |  |  |
| CCCCc1nc2cccc(C)c2c(=O)n1Cc1ccc(-c2ccccc2C(=O)O)cc1 |  |  |  | IC50 [3]: 370 nM |
| COc1cccc(/C=N/c2nnc(CNn3c(C)nc4ccc(Br)cc4c3=O)s2)c1 |  |  | 50% |  |
| COc1cccc(/C=N/c2nnc(CNn3c(C)nc4ccccc4c3=O)s2)c1 |  |  | 50% |  |
| CCCCCc1nc2ccc(C)cc2c(=O)n1Cc1ccc(-c2ccccc2-c2nn[nH]n2)cc1 |  |  |  | IC50 [3]: ≥ 1.3 nM |
| COc1cc(C2SCC(=O)N2c2nnc(CNn3c(C)nc4ccccc4c3=O)s2)ccc1O (stereo unspecified) |  |  | 60% |  |
| COc1ccc(C2SCC(=O)N2c2nnc(CNn3c(C)nc4ccccc4c3=O)s2)cc1 (stereo unspecified) |  |  | 60% |  |
| COc1cc(C2SCC(=O)N2c2nnc(CNn3c(C)nc4ccc(Br)cc4c3=O)s2)ccc1O (stereo unspecified) |  |  | 60% |  |
| Cc1nc2ccccc2c(=O)n1NCc1nnc(NCC2C(=O)NC(=S)NC2=O)s1 | 60% | 60% |  |  |
| Cc1nc2ccc(Br)cc2c(=O)n1NCc1nnc(NCC2C(=O)NC(=O)NC2=O)s1 | 60% | 60% |  |  |
| Cc1nc2ccc(Br)cc2c(=O)n1NCc1nnc(/N=C/c2ccc(N(C)C)cc2)s1 |  |  | 50% |  |
| CCCCc1nc2cc(OC)c(OC)cc2c(=O)n1Cc1ccc(-c2ccccc2-c2nn[nH]n2)cc1 |  |  |  | IC50 [3]: ≥ 1.3 nM |
| Cc1nc2ccc(Br)cc2c(=O)n1NCc1nnc(NCC2C(=O)NC(=S)NC2=O)s1 | 60% | 60% |  |  |
| Cc1nc2c(Br)cc(Br)cc2c(=O)n1NCC(=O)NNC(=S)NCC1C(=O)NC(=O)NC1=O | 40% | 40% |  |  |

| Structure (SMILES) | Activity (Rattus norvegicus [1]) | Activity (Rattus norvegicus [2]) | inhibition in vivo at 30 mg/kg (Rattus norvegicus [5]) | further results |
| --- | --- | --- | --- | --- |
| COc1cc(/C=N/c2nnc(CNn3c(C)nc4ccccc4c3=O)s2)ccc1O |  |  | 50% |  |
| CCCCc1nc2ccc(Cl)cc2c(=O)n1Cc1ccc(-c2ccccc2-c2nn[nH]n2)cc1 |  |  |  | IC50 [3]: ≥ 1.3 nM |
| CCCCc1nc2ccc([N+](=O)[O-])cc2c(=O)n1Cc1ccc(-c2ccccc2-c2nn[nH]n2)cc1 |  |  |  | IC50 [3]: ≥ 1.3 nM |
| CCCCc1nc2ccc(OC)cc2c(=O)n1Cc1ccc(-c2ccccc2-c2nn[nH]n2)cc1 |  |  |  | IC50 [3]: ≥ 1.3 nM |
| CCCCc1nc2ccc(F)cc2c(=O)n1Cc1ccc(-c2ccccc2-c2nn[nH]n2)cc1 |  |  |  | IC50 [3]: ≥ 1.3 nM |
| Cc1nc2ccc(I)cc2c(=O)n1NCC(=O)NNC(N)=S | 20% | 20% |  |  |
| CCCCc1nc2ccc(NC(C)=O)cc2c(=O)n1Cc1ccc(-c2ccccc2-c2nn[nH]n2)cc1 |  |  |  | IC50 [3]: ≥ 1.3 nM |
| Cc1nc2ccc(Br)cc2c(=O)n1NCc1nnc(/N=C/c2ccccc2)s1 |  |  | 50% |  |
| O=C1N=C([O-])NC1(c1ccccc1)c1ccccc1.[Na+] [PHENYTOIN SODIUM] | 80% | 80% | 80% |  |
| COc1cc(/C=N/c2nnc(CNn3c(C)nc4ccc(Br)cc4c3=O)s2)ccc1O |  |  | 50% |  |
| CCCCc1nc2ccc(C(F)(F)F)cc2c(=O)n1Cc1ccc(-c2ccccc2-c2nn[nH]n2)cc1 |  |  |  | IC50 [3]: ≥ 1.3 nM |
| Cc1nc2ccc(I)cc2c(=O)n1NCC(=O)NNC(=S)NCC1C(=O)NC(=S)NC1=O | 40% | 40% |  |  |
| Cc1nc2ccc(Br)cc2c(=O)n1NCc1nnc(/N=C/c2ccc(O)cc2)s1 |  |  | 50% |  |
| Cc1nc2ccc(Br)cc2c(=O)n1NCC(=O)NNC(N)=S | 20% | 20% | 30% |  |
| Cc1nc2ccc(Br)cc2c(=O)n1NCc1nnc(N2C(=O)CSC2c2ccc(O)cc2)s1 (stereo unspecified) |  |  | 60% |  |
| CCCCc1nc2ccccc2c(=O)n1Cc1ccc(-c2ccccc2-c2nn[nH]n2)cc1 |  |  |  | IC50 [3]: ≥ 1.3 nM |
| Cc1nc2ccc(Br)cc2c(=O)n1NCc1nnc(N2C(=O)CSC2c2ccc(N(C)C)cc2)s1 (stereo unspecified) |  |  | 60% |  |
| Cc1nc2ccc(Br)cc2c(=O)n1/C=C/c1ccccc1O |  |  |  | Activity (Tobacco mosaic virus): 54% |
| O=c1c2ccccc2nc(-c2ccccc2)n1/C=C/c1cccc(Cl)c1Cl |  |  |  | Activity (Tobacco mosaic virus): 54% |
| Cc1nc2ccc(Br)cc2c(=O)n1/C=C/c1cccc([N+](=O)[O-])c1 |  |  |  | Activity (Tobacco mosaic virus): 54% |
| COc1cccc(C2SCC(=O)N2c2nnc(CNn3c(C)nc4ccc(Br)cc4c3=O)s2)c1 (stereo unspecified) |  |  | 60% |  |
